Assay results from patent publication US8624034B2, “Fluoro-pyridinone derivatives useful as antibacterial agents” (Pfizer Inc., priority 2011, dated 2014).
Converted amounts (≈) assume the structure as drawn. Like-named read-outs stand apart in the source and are kept apart here.

Legend:
[1] = test system: Acinetobacter baumannii/haemolyticus, multidrug-resistant clinical isolate (AB-3167); assay: MIC determination, AB-3167; type: cell-based; conditions: Table 2, lower of duplicate values
In short: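 MIC read visually after overnight growth across 2-fold concentration steps in the CLSI dilution method against the multidrug-resistant clinical isolate. Duplicate determinations, lower value reported when within 2-fold, otherwise repeated; every run checked with control organisms and reference drugs.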

[2] = molecular target: T1, Pseudomonas aeruginosa LpxC enzyme (Pseudomonas aeruginosa, UniProt P47205); assay: IC50 assay, LpxC enzyme from P. aeruginosa (PA LpxC enzyme IC50); type: biochemical; conditions: LpxC enzyme 0.1 nM, 25° C., 1 hour
T1 construct: made in house; host or cells: E. coli
T1 sequence (P47205 1-303): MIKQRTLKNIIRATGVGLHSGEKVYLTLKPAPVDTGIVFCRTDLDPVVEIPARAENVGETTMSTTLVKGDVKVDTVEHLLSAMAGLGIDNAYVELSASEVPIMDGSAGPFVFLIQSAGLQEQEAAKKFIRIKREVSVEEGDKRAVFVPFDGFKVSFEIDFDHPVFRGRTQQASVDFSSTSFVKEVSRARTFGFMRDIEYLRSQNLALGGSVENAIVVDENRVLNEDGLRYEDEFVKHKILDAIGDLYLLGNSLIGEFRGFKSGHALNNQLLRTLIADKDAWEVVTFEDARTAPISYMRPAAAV
In short: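 IC50 values came from percent conversion, referenced to a no-enzyme control. Conversion was read by RapidFire HTMS mass spectrometry after HCl quench of the 1 h enzyme reaction.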

[3] = test system: Pseudomonas aeruginosa UI-18: wild-type (PA-7); assay: MIC determination, PA-7; type: cell-based; conditions: Table 2, lower of duplicate values
Procedure: The in vitro antibacterial activity of compounds described in the Examples was evaluated by minimum inhibitory concentration (MIC) testing according to Clinical and Laboratory Standards Institute (CLSI). See: Clinical and Laboratory Standards Institute. Methods for Dilution Antimicrobial Susceptibility Tests for Bacteria that Grow Aerobically; Approved Standard-Eighth Edition. CLSI document M7-A8 [ISBN 1-56238-689-1]. Clinical and Laboratory Standards Institute, 940 West Valley Road, Suite 1400, Wayne, Pa. 19087-1898 USA, 2006; also Clinical and Laboratory Standards Institute. Performance Standards for Antimicrobial Susceptibility Testing; Twentieth Informational Supplement. CLSI document M100-S20 [ISBN 1-56238-716-2]. Clinical and Laboratory Standards Institute.
The MIC determination is a standard laboratory method for evaluating the antibacterial activity of a compound. The MIC represents the lowest drug concentration that inhibits visible growth of bacteria following overnight incubation. […] Typically, the drug concentration range is broken down into 2-fold increments (e.g. 0.06 μg/mL, 0.12 μg/mL. 0.25 μg/mL, 0.50 μg/mL, 1.0 μg/mL, etc.) and the various drug concentrations are all individually incubated overnight with approximately the same number of bacteria. The MIC is then determined by visually inspecting the drug effect at each concentration, and identifying the lowest drug concentration that has inhibited bacterial growth as compared to the drug free control. Typically, bacteria continue to grow at drug concentrations lower than the MIC and don't grow at concentrations at and above the MIC.
The MIC values described in Table 2 and 3 below were derived from assays wherein each test compound was evaluated in duplicate. In cases where the duplicate values varied by 0-2-fold, the lower of the two values was reported below. Generally speaking, if the duplicate values varied by more than 2-fold, the assay was considered non-valid and was repeated until the variation between duplicate runs was ≦2-fold. In line with the CLSI guidelines referred to above, both control organisms and reference compounds were utilized in each MIC assay to provide proper quality control. MIC values generated with these control organisms and reference compounds were required to fall within a defined range for the assay to be considered valid and be included herein. Those skilled in the art will recognize that MIC values can and do vary from experiment to experiment. Generally speaking, it should be recognized that MIC values often vary +/−2-fold from experiment to experiment. While a single MIC is reported for each compound and each microorganism, the reader should not conclude that each compound was only tested once. Several of the compounds were subjected to multiple tests. The data reported in Tables 2 and 3 is reflective of the compounds relative activity and different MICs may have been generated on these occasions in line with the guidelines described above.
The following bacterial strains were used in these MIC determinations:
1) Pseudomonas aeruginosa UI-18: Wild-type, labeled as PA-7 in Tables 2 and 3;

[4] = test system: Escherichia coli EC-1: VOGEL, mouse virulent; assay: MIC determination, EC-1; type: cell-based; conditions: Escherichia coli, read-out: EC-1 (MIC), Table 2, lower of duplicate values
In short: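 Duplicate runs differing by more than 2-fold were repeated, and otherwise the lower MIC was kept. The test organism was E. coli EC-1 (VOGEL, mouse virulent), incubated overnight across 2-fold compound dilutions following CLSI guidelines. The MIC was read visually as the lowest concentration inhibiting growth relative to drug-free control.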

SMILES	MIC [1] [µg/mL]	IC50 ([2]; Table 2, read-out: PA:IC50) [nM]	MIC [3] [µg/mL]	MIC [4] [µg/mL]	IC50 ([2]; PA:IC50, Table 2) [nM]
C[C@@](CCn1cc(F)c(-c2ccc(-c3ccon3)cc2)cc1=O)(C(=O)NO)S(C)(=O)=O [Example 41, (2R)-4-[5-Fluoro-4-(4-isoxazol-3-ylphenyl)-2-oxopyridin-1(2H)-yl]-N-hydroxy-2-methyl-2-(methylsulfonyl)butanamide]	16 (≈ 35.6 µM)	0.237	0.5 (≈ 1.11 µM)	0.5 (≈ 1.11 µM)	–
COc1ccc(-c2cc(=O)n(CC[C@](C)(C(=O)NO)S(C)(=O)=O)cc2F)c(F)c1 [Example 27, (2R)-4-[5-Fluoro-4-(2-fluoro-4-methoxyphenyl)-2-oxopyridin-1(2H)-yl]-N-hydroxy-2-methyl-2-(methylsulfonyl)butanamide]	> 64	0.0498	0.5 (≈ 1.16 µM)	0.25 (≈ 0.581 µM)	–
Cc1cc(-c2cc(=O)n(CC[C@](C)(C(=O)NO)S(C)(=O)=O)cc2F)ccc1F [Example 14, (2R)-4-[5-Fluoro-4-(4-fluoro-3-methylphenyl)-2-oxopyridin-1(2H)-yl]-N-hydroxy-2-methyl-2-(methylsulfonyl)butanamide]	> 64	0.758	0.5 (≈ 1.21 µM)	0.5 (≈ 1.21 µM)	–
C[C@@](CCn1cc(F)c(-c2ccccc2)c(F)c1=O)(C(=O)NO)S(C)(=O)=O [Example 38, (2R)-4-(3,5-Difluoro-2-oxo-4-phenylpyridin-1(2H)-yl)-N-hydroxy-2-methyl-2-(methylsulfonyl)butanamide]	> 64	0.55	0.5 (≈ 1.25 µM)	1 (≈ 2.5 µM)	–
C[C@@](CCn1cc(F)c(-c2ccc(Cl)cc2)cc1=O)(C(=O)NO)S(C)(=O)=O [Example 3, (2R)-4-[4-(4-Chlorophenyl)-5-fluoro-2-oxopyridin-1(2H)-yl]-N-hydroxy-2-methyl-2-(methylsulfonyl)butanamide]	64 (≈ 154 µM)	0.325	0.25 (≈ 0.6 µM)	0.25 (≈ 0.6 µM)	–
C[C@@](CCn1cc(F)c(C#Cc2ccccc2)cc1=O)(C(=O)NO)S(C)(=O)=O [Example 48, (2R)-4-[5-Fluoro-2-oxo-4-(phenylethynyl)pyridin-1(2H)-yl]-N-hydroxy-2-methyl-2-(methylsulfonyl)butanamide]	> 64	0.555	0.5 (≈ 1.23 µM)	0.06 (≈ 0.148 µM)	–
C[C@@](CCn1cc(F)c(-c2ccc(-n3nccn3)c(F)c2)cc1=O)(C(=O)NO)S(C)(=O)=O [Example 36, (2R)-4-{5-Fluoro-4-[3-fluoro-4-(2H-1,2,3-triazol-2-yl)phenyl]-2-oxopyridin-1(2H)-yl}-N-hydroxy-2-methyl-2-(methylsulfonyl)butanamide]	> 64	0.398	1 (≈ 2.14 µM)	0.5 (≈ 1.07 µM)	–
Cc1cccc(-c2cc(=O)n(CC[C@](C)(C(=O)NO)S(C)(=O)=O)cc2F)c1F [Example 2, (2R)-4-[5-Fluoro-4-(2-fluoro-3-methylphenyl)-2-oxopyridin-1(2H)-yl]-N-hydroxy-2-methyl-2-(methylsulfonyl)butanamide]	> 64	0.595	0.25 (≈ 0.603 µM)	0.25 (≈ 0.603 µM)	–
C[C@@](CCn1cc(F)c(-c2ccccc2F)cc1=O)(C(=O)NO)S(C)(=O)=O [Example 4, (2R)-4-[5-Fluoro-4-(2-fluorophenyl)-2-oxopyridin-1(2H)-yl]-N-hydroxy-2-methyl-2-(methylsulfonyl)butanamide]	> 64	0.717	0.5 (≈ 1.25 µM)	2 (≈ 4.99 µM)	–
C[C@@](CCn1cc(F)c(-c2ccc(OC(F)F)cc2)cc1=O)(C(=O)NO)S(C)(=O)=O [Example 33, (2R)-4-{4-[4-(Difluoromethoxy)phenyl]-5-fluoro-2-oxopyridin-1(2H)-yl}-N-hydroxy-2-methyl-2-(methylsulfonyl)butanamide]	> 64	0.0606	0.5 (≈ 1.12 µM)	0.5 (≈ 1.12 µM)	–
COc1cccc(-c2cc(=O)n(CC[C@](C)(C(=O)NO)S(C)(=O)=O)cc2F)c1 [Example 25, (2R)-4-[5-Fluoro-4-(3-methoxyphenyl)-2-oxopyridin-1(2H)-yl]-N-hydroxy-2-methyl-2-(methylsulfonyl)butanamide]	> 64	0.412	2 (≈ 4.85 µM)	1 (≈ 2.42 µM)	–
Cc1cnn(-c2ccc(-c3cc(=O)n(CC[C@](C)(C(=O)NO)S(C)(=O)=O)cc3F)cc2)n1 [Example 23, (2R)-4-{5-Fluoro-4-[4-(4-methyl-2H-1,2,3-triazol-2-yl)phenyl]-2-oxopyridin-1(2H)-yl}-N-hydroxy-2-methyl-2-(methylsulfonyl)butanamide]	> 64	0.287	0.5 (≈ 1.08 µM)	0.06 (≈ 0.129 µM)	–
CSc1ccc(-c2cc(=O)n(CC[C@](C)(C(=O)NO)S(C)(=O)=O)cc2F)cc1 [Example 9, (2R)-4-{5-Fluoro-4-[4-(methylthio)phenyl]-2-oxopyridin-1(2H)-yl}-N-hydroxy-2-methyl-2-(methylsulfonyl)butanamide]	> 64	–	0.5 (≈ 1.17 µM)	0.25 (≈ 0.583 µM)	0.51
CCOc1ccc(-c2cc(=O)n(CC[C@](C)(C(=O)NO)S(C)(=O)=O)cc2F)cc1 [Example 10, (2R)-4-[4-(4-Ethoxyphenyl)-5-fluoro-2-oxopyridin-1(2H)-yl]-N-hydroxy-2-methyl-2-(methylsulfonyl)butanamide]	> 64	0.823	1 (≈ 2.34 µM)	0.25 (≈ 0.586 µM)	–
COc1cnc(-c2ccc(-c3cc(=O)n(CC[C@](C)(C(=O)NO)S(C)(=O)=O)cc3F)cc2)nc1 [Example 21, (2R)-4-{5-Fluoro-4-[4-(5-methoxypyrimidin-2-yl)phenyl]-2-oxopyridin-1(2H)-yl}-N-hydroxy-2-methyl-2-(methylsulfonyl)butanamide]	> 64	0.436	1 (≈ 2.04 µM)	0.125 (≈ 0.255 µM)	–
C[C@@](CCn1cc(F)c(-c2ccc(-c3ncccn3)cc2)cc1=O)(C(=O)NO)S(C)(=O)=O [Example 20, (2R)-4-[5-Fluoro-2-oxo-4-(4-pyrimidin-2-ylphenyl)pyridin-1(2H)-yl]-N-hydroxy-2-methyl-2-(methylsulfonyl)butanamide]	> 64	0.945	1 (≈ 2.17 µM)	0.125 (≈ 0.271 µM)	–
C[C@@](CCn1cc(F)c(-c2ccc(-n3nccn3)cc2)cc1=O)(C(=O)NO)S(C)(=O)=O [Example 26, (2R)-4-{5-Fluoro-2-oxo-4-[4-(2H-1,2,3-triazol-2-yl)phenyl]pyridin-1(2H)-yl}-N-hydroxy-2-methyl-2-(methylsulfonyl)butanamide]	> 64	0.0743	0.25 (≈ 0.556 µM)	≤ 0.06	–
C[C@@](CCn1cc(F)c(-c2ccc(F)cc2)cc1=O)(C(=O)NO)S(C)(=O)=O [Example 31, (2R)-4-[5-Fluoro-4-(4-fluorophenyl)-2-oxopyridin-1(2H)-yl]-N-hydroxy-2-methyl-2-(methylsulfonyl)butanamide]	> 64	0.213	0.5 (≈ 1.25 µM)	1 (≈ 2.5 µM)	–
